Source: patent US20250319067A1, “Improved Pharmacokinetics of Tryptamine Prodrugs” (Reunion Neuroscience, Inc., priority 2023, published 2025)

Columns and labels:
human hepatocytes = experiment: Hepatocyte intrinsic clearance, human; format: in vitro ADME
Description: (§1) In human, rat, rabbit, dog and monkey hepatocytes, the metabolite profile of RE104 was qualitatively similar across these species with only minor differences.

[1] = test system: cytochrome P450 (CYP) enzymes, FMO and MAO enzymes; experiment: Recombinant human enzymes (Supersomes) substrate assay; format: in vitro ADME
monkey hepatocytes = experiment: Hepatocyte intrinsic clearance, monkey; format: in vitro ADME
Description: as §1

[2] = target: T1, human recombinant 5-HT2A receptors (Homo sapiens, UniProt P28223); experiment: 5-HT2A agonist radioligand binding assay ([125I]DOI)
Experimental: Increasing concentrations of RE104 were incubated with 0.2 nM [^125I]DOI in CHO cell cultures expressing human recombinant 5-HT2B receptors.
Radioligand concentration was measured by scintillation counting; compound binding was calculated as percent inhibition of the binding of [^125I]DOI. In agonist activity assays, test concentrations of RE104 were incubated with HEK-293 cells expressing human recombinant 5-HT2A receptors; IP1 production was detected using homogeneous time-resolved fluorescence. Activation was calculated as a percentage of the response to the positive control (10 μM 5-HT).
Inhibition constants were calculated by using the Cheng-Prusoff equation Ki=IC50/(1+L/KD), where L=radioligand concentration and KD=radioligand affinity for the receptor (determined with a Scatchard plot). In the functional activity assay test concentrations of RE104 were 10 nM, 30 nM, 100 nM, 300 nM, 1 μM, 3 μM, 10 μM, and 30 μM. EC50 and IC50 values were determined by nonlinear regression analysis of the concentration-response curves generated with mean replicate values using Hill equation curve fitting.

in vivo = details: male, beagle, dog, plasma
Experimental: Two consecutive doses were separated by z7 days. Plasma samples were analyzed using an LC-MS/MS method (lower limit of quantification of 1.00 ng/mL for both analytes).
Pharmacokinetic parameters were calculated using Phoenix WinNonlin, version 6.3 or 8.2 (Certara, Princeton, NJ, USA).
For dog PK assessments, approximately 0.5 mL of blood was collected via superficial vein before dose and at 5 (for IV and SC injections only), 15, and 30 minutes and 1, 2, 4, 8, 16, 24, 48, and 72 hours post dose into tubes containing K2EDTA with 10 mM Dichlorvos as the anticoagulant and stabilizer, respectively.

dog hepatocytes = experiment: Hepatocyte intrinsic clearance, dog; format: in vitro ADME
Description: as §1

[3] = target: T1, human recombinant 5-HT2A receptors; experiment: 5-HT2A cellular agonist effect assay (IP1, HTRF); format: cell-based; set-up: host or cells: HEK-293
Experimental: Activation was calculated as a percentage of the response to the positive control (10 μM 5-HT).
EC50 and IC50 values were determined by nonlinear regression analysis of the concentration-response curves generated with mean replicate values using Hill equation curve fitting. For all receptor pharmacology assays, data were analyzed with software developed at Cerep (Hill software, Celle-Lévescault, France) and validated by comparison with data generated by the commercial software SigmaPlot® 4.0 for Windows®(01997 by SPSS Inc).

healthy females = experiment: Phase 1 FIH study: Mystical Experience Questionnaire (MEQ30); format: in vivo, human
Experimental: The study was a double-blind, randomized, placebo-controlled Phase 1 single ascending dose study in up to 6 cohorts in healthy females. Eligibility was assessed during a screening period of up to 28 days prior to enrollment. For the treatment period, subjects were admitted to the clinical research unit (CRU) one day prior to the dosing (Day −1). On Day 1, all subjects will received the assigned SC dose of RE104 HCl or placebo in a fed state (after domiciling overnight and consuming a planned evening meal on Day −1 and morning meal on Day 1 while at the CRU). Subjects were allowed to select snacks from a planned menu from 4 hours following dosing. Subjects were discharged from the clinic on Day 2 (−24 hours post-dose) after all required study procedures were completed and if deemed medically fit. Subjects returned to the clinic on Day 10 (±2 days) for a follow up visit.
The Mystical Experience Questionnaire (MEQ30) is a validated questionnaire that assesses individual episodes of a mystical experience produced by classic hallucinogens (Barrett et al. 2015). The validated MEQ30 uses thirty questions across 4 areas of experience: (i) Mystical (including items concerning internal unity, external unity, noetic quality, and sacredness); (ii) Positive mood; (iii) Transcendence of time and space; and (iv) Ineffability. The subjects will be asked to rate each item of the MEQ30 on a 6-point scale. FIG. 3 sets out the revised MEQ30 that was used.

male Wistar rats = experiment: Forced swim test (FST) in rats; format: in vivo, rat
[4] = Non-GLP single dose, dose range study in rats (MTD); details: rat, in vivo, sc
Experimental: Non-GLP single dose, dose range studies with RE104 HCl were performed in rats and dogs to explore toxicity and establish a maximum tolerated dose (MTD) by SC injection. The rat study explored dosing with two formulations, water for injection (WFI) at pH 3-4 and phosphate buffered saline (PBS) with a final formulation pH of 4.5-5. Single doses of 20 to 300 mg/kg formulated in WFI produced dose-dependent pharmacologically related systemic serotonergic clinical signs. Similarly, SC administration with doses of 25 to 225 mg/kg RE104 formulated in PBS caused clinical signs of SS around 1 hour with recovery by 24 hours.
Clinical signs were reversible by Recovery Day 13 (Study Day 14). Microscopic injection site pathology was seen following a single dose of 225 mg/kg. The MTD in the rat for RE104 in WFI was 150 mg/kg and in PBS was 75 mg/kg.

[5] = Prodrug cleavage in dog plasma; format: in vitro ADME; details: after 4 hours of incubation
Experimental: (§2) Mean values from 3 replicate assays are reported. See the Supplemental Methods for additional details.
(§3) Triplicate aliquots (50 μL) of each spiked plasma solution were immediately added to 200 μL of ice-cold methanol/acetonitrile solution (50:50 v/v) containing the internal standards to generate time zero samples. Spiked plasma solutions were incubated at 37° C. in an orbital shaker set to 75 rpm, and 50-μL samples were taken in triplicate after 30 minutes and 1, 2, and 4 hours of incubation. Each sample was immediately added to 200 μL ofice-cold methanol/acetonitrile solution containing the internal standard(s) to terminate the reaction. Samples were mixed by vortex and then stored at −80° C. until analysis.
(§4) Calibration standards were prepared in plasma for each species and analyzed in batches by LC-MS/MS. Sample batches consisted of 3 replicates of a system suitability standard (containing the analyte and internal standard), the appropriate calibration standards in ascending order including a blank sample without internal standard, a zero sample (with internal standard), and at least 6 nonzero standards and the assay samples, followed by the 3 replicates of the system suitability sample.

[6] = GLP 14-day extended single SC dose toxicity study in rats; details: rat; for NOAEL at 14 days: in vivo
Experimental: (§5) In a GLP 14-day extended single SC dose toxicity study in rats, doses of 0 (PBS), 10, 25 and 75 mg/kg were evaluated. Animals were necropsied on Study Day 2 and Day 14 (also referred to as Recovery Day 13) post-dosing.
(§6) A non-GLP dose range study was performed in the dog in order to determine an MTD. Single SC doses of 7.5, 15 and 20 mg/kg were evaluated.

rats = experiment: as above
Experimental: as §5, §6

[7] = Prodrug cleavage in human plasma; format: in vitro ADME; details: human plasma, 37° C.
Experimental: as §2, §3, §4

rat hepatocytes = experiment: Hepatocyte intrinsic clearance, rat; format: in vitro ADME
Description: as §1

T1 sequence (P28223 whole entry): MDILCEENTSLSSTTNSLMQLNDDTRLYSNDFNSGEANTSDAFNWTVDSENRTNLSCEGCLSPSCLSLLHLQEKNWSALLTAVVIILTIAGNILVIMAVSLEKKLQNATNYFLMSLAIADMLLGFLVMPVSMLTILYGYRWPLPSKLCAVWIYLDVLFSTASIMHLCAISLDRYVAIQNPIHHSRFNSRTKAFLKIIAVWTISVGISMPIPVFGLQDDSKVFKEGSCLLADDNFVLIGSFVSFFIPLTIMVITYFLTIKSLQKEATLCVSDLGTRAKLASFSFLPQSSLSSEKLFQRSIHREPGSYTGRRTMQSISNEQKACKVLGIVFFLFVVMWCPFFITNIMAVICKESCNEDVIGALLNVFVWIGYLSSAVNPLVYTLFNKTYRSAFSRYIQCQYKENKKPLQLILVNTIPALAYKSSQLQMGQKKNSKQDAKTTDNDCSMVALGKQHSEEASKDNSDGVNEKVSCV

CC(C)N(CCc1c[nH]c2cccc(OC(=O)CCCC(=O)O)c12)C(C)C [RE104]
in vitro intrinsic clearance (CLint) (human hepatocytes): 3.45 mL/hr/106 cells | substrate for cytochrome P450, FMO or MAO isoforms [1]: not a substrate | in vitro intrinsic clearance (CLint) (monkey hepatocytes): 1.14 mL/hr/106 cells | IC50 [2]: 1.6 µM | Ki ([2]; read-out: binding Ki at the 5-HT2A receptor, radioligand inhibition binding, HEK-293 cells): 4.3 µM | AUC(0-inf) (in vivo; po, 5 mg/kg): 21.8 ng·h/mL | AUC(0-t) (in vivo; po, 5 mg/kg): 20 ng·h/mL | Cmax (in vivo; po, 5 mg/kg): 12.2 ng/mL | Tmax (in vivo; po, 5 mg/kg): 30 min | bioavailability (in vivo; po, 5 mg/kg): 0.854% | half-life (in vivo; po, 5 mg/kg): 78 min | AUC(0-t) (in vivo; sc, 1 mg/kg): 658 ng·h/mL | in vitro intrinsic clearance (CLint) (dog hepatocytes): 0.87 mL/hr/106 cells | EC50 [3]: > 30 µM | Participants with MEQ total score ≥60% (healthy females; RE104 5.5 mg, n 6): 0% | Participants with MEQ total score ≥60% (healthy females; RE104 11 mg, n 6): 50% | Participants with MEQ total score ≥60% (healthy females; RE104 22 mg, n 6): 16.7% | Participants with MEQ total score ≥60% (healthy females; RE104 33 mg, n 9): 66.7% | Participants with MEQ total score ≥60% (healthy females; RE104 38 mg, n 6): 83.3% | Participants with MEQ total score ≥60% (healthy females; RE104 44 mg, n 3): 100% | climbing as share of escape behaviors (male Wistar rats; rat FST, day 28): 45% | swimming as share of escape behaviors (male Wistar rats; rat FST, day 28): 55% | mean swimming time relative to vehicle (male Wistar rats; rat FST, single 1 mg/kg dose): significantly increased | mean immobility time vs vehicle (male Wistar rats; rat FST, single 1 mg/kg dose, day 7, 14, and 28): significant decrease | duration of distinctive serotonergic behaviors (male Wistar rats; rat, dosing day, 1 mg/kg): approximately 3 hours | MTD at 14 days ([4]; formulated in PBS): 75 mg/kg | MTD at 14 days ([4]; formulated in WFI): 150 mg/kg | prodrug remaining [5]: 39% | NOAEL at 14 days ([6]; Sprague Dawley, sc): 10 mg/kg | Cmax ([6]; Sprague Dawley, plasma, sc, 10 mg/kg): 0.751 ng/mL | NOAEL at 14 days ([6]; both, Sprague Dawley, sc): 10 mg/kg | NOAEL at 14 days ([6]; female, subcutaneous): 10 mg/kg | human equivalent dose [HED] of the 10 mg/kg rat dose (rats; expressed as zwitterion, 60 kg human, BSA conversion): approximately 97 mg | low adverse effect level (LOAEL) (rats; male rats): 10 mg/kg | 1/10 of HED (rats; rat): 0.16 mg/kg | 1/10 of Human BSA dose (rats; rat): 9.7 mg | Human BSA dose (rats; rat): 60 mg/m^2 | fold HED higher than proposed starting dose (rats; rat HED vs 5 mg (zwitterion)): approximately 19 fold | fold HED higher than maximum proposed dose (rats; rat HED vs 48 mg (zwitterion)): ~2 fold | HED (rats; rat NOAEL, BSA conversion factors): 1.6 mg/kg | Human BSA dose (rats; rat, based on a BSA of 1.62 m^2): 97.2 mg | completeness of conversion [7]: > 95% | time of conversion to 4-OH-DiPT [7]: < 30 min | in vitro intrinsic clearance (CLint) (rat hepatocytes): 6.66 mL/hr/106 cells
